Assay results reported in ChEMBL document CHEMBL5465560, “Selectivity Literature for EUbOPEN Chemogenomic Library” (2024).

Experiments:
[1] = biological target: Cyclin-dependent kinase 9 (Homo sapiens, UniProt P50750); conditions: at 10 µM
[2] = biological target: T1, Interleukin-1 receptor-associated kinase 3 (Homo sapiens) (UniProt Q9Y616); assay: Selectivity interaction (KinomeScan (DiscoverX)) EUB0001079a IRAK3; conditions: at 1 µM
T1 sequence (whole entry): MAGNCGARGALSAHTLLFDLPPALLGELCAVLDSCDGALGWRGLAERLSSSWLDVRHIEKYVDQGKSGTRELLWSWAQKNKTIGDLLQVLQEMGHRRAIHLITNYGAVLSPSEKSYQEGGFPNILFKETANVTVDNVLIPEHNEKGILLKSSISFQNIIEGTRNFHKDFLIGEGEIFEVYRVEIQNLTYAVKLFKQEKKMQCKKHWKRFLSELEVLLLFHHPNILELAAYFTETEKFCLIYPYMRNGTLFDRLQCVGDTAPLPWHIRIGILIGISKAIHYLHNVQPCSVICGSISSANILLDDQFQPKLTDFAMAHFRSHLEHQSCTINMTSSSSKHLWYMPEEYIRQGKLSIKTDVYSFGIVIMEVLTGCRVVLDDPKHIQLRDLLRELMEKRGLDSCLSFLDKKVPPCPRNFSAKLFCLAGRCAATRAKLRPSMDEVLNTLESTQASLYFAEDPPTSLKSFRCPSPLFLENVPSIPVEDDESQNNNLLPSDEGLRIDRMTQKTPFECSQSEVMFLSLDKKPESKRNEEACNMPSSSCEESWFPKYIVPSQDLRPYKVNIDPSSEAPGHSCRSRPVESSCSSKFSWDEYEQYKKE

[3] = biological target: Insulin-like growth factor 1 receptor (Homo sapiens, UniProt P08069); assay: Selectivity interaction (Millipore kinase profiler) EUB0000124b IGF1R; conditions: at 10 µM
Sequence of Insulin-like growth factor 1 receptor (P08069 31-736 limits assumed): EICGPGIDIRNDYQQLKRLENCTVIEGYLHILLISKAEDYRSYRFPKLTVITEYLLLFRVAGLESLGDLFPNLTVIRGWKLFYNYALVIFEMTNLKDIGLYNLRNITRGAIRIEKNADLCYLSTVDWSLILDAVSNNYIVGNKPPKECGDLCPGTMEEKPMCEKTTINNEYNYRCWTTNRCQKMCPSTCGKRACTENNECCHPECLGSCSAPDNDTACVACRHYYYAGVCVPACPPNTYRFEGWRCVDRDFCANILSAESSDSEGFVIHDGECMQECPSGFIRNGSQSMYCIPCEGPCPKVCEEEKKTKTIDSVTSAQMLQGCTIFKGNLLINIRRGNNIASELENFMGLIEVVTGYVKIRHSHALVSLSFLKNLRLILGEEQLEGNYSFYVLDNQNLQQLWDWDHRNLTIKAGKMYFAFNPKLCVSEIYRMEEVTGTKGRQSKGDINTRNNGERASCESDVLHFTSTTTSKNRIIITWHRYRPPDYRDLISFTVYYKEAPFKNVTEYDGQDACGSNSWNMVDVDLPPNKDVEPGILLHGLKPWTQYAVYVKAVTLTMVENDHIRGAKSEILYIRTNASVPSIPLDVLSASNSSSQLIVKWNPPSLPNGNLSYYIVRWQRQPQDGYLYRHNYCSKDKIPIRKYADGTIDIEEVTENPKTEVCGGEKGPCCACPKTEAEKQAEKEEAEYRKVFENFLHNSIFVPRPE
Sequence of Insulin-like growth factor 1 receptor (P08069 741-1367 limits assumed): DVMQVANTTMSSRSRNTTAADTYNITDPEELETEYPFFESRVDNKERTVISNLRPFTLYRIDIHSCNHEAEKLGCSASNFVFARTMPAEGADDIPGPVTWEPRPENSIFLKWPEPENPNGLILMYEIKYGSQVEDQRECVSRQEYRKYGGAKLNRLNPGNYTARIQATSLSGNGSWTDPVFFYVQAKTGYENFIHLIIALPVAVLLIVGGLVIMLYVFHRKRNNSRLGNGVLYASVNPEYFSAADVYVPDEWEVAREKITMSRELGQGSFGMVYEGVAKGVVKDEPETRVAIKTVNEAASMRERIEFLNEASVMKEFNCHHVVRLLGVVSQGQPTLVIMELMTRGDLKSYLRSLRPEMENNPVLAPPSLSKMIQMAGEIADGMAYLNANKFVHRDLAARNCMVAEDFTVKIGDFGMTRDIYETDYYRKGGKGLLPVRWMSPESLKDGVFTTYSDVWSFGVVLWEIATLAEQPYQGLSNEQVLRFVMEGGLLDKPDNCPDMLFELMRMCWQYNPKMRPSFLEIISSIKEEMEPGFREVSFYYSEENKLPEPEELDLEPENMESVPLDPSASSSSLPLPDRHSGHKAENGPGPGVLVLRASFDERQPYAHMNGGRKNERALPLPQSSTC

[4] = biological target: T2, Cyclin-dependent kinase-like 2 (Homo sapiens) (UniProt Q92772); assay: Selectivity interaction (KinomeScan (DiscoverX)) EUB0001619a CDKL2; conditions: at 1 µM
T2 sequence (whole entry): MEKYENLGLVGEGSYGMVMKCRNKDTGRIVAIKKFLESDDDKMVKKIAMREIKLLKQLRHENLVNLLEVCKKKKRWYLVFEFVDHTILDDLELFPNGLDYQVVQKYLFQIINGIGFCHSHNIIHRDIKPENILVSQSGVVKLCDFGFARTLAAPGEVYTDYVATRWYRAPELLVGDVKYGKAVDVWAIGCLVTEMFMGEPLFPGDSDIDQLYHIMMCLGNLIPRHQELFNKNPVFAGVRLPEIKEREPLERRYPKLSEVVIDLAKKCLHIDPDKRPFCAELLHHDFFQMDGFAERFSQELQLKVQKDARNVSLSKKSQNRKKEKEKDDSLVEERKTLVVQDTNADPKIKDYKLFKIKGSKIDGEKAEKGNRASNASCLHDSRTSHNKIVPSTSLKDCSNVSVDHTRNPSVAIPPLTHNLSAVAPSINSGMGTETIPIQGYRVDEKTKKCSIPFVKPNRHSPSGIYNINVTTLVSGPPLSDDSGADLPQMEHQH

[5] = biological target: Rho-associated protein kinase 1 (Homo sapiens) (UniProt Q13464); assay: Selectivity interaction (KinomeScan (DiscoverX)) EUB0001619a ROCK1; conditions: at 1 µM
Sequence of Rho-associated protein kinase 1 (Homo sapiens) (Q13464 2-1354 limits assumed): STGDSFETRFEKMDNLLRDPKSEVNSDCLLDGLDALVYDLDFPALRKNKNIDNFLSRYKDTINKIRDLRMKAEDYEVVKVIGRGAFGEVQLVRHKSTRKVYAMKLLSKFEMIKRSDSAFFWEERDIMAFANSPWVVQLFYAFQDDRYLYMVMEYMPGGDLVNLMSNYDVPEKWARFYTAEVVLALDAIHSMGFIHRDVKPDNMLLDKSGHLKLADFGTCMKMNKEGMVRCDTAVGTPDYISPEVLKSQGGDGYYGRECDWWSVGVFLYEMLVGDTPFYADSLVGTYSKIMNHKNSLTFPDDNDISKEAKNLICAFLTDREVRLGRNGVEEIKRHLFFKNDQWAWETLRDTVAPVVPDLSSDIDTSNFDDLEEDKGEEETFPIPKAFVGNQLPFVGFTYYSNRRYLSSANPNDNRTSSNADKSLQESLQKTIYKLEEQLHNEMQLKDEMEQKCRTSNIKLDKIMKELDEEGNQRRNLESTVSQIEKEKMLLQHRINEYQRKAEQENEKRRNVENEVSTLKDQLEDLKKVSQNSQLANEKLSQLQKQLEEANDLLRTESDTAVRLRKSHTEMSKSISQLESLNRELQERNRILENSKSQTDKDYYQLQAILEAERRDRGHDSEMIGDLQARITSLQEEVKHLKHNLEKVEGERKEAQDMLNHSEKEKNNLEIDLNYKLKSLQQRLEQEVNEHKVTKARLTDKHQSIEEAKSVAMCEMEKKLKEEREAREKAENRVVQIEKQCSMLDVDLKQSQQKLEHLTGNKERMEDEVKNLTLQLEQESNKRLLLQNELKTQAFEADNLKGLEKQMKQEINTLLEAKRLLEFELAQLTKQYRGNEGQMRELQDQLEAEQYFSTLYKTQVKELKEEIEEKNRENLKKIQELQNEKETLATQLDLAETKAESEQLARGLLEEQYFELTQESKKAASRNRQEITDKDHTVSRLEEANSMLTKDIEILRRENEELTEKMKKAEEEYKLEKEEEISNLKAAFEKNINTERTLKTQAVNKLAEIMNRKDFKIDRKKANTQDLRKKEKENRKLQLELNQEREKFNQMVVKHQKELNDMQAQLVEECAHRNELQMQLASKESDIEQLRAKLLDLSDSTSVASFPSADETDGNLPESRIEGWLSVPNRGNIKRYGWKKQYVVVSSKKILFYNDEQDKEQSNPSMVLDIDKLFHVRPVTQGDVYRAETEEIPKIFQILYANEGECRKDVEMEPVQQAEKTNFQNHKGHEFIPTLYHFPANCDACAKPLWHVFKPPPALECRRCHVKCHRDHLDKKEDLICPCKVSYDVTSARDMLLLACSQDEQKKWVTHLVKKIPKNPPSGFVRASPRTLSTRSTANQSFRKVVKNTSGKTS

[6] = biological target: Serine/threonine-protein kinase haspin (Homo sapiens, UniProt Q8TF76)
Sequence of Serine/threonine-protein kinase haspin (Q8TF76 whole entry): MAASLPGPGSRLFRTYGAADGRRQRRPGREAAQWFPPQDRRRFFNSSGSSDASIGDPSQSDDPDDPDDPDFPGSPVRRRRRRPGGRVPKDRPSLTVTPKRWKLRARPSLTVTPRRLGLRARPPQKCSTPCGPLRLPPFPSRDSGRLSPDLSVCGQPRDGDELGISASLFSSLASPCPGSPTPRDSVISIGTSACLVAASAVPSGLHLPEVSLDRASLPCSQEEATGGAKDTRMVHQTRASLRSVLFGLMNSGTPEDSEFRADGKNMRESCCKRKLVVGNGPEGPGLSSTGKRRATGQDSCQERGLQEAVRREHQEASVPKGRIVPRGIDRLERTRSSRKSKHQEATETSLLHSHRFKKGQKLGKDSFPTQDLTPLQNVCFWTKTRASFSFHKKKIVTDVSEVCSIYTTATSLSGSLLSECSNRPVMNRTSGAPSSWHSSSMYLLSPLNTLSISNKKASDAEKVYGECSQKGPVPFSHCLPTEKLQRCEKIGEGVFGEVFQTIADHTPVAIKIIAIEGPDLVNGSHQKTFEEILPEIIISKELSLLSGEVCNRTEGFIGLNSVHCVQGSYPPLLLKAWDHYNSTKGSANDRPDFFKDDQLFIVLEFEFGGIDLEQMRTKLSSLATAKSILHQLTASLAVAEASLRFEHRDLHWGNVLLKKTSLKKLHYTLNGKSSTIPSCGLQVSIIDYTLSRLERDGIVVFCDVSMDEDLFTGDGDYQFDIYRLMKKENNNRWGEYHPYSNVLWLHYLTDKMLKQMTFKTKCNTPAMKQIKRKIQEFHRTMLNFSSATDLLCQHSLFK

[7] = biological target: T3, Prostaglandin G/H synthase 2 (Homo sapiens) (UniProt P35354); assay: Selectivity interaction (Safety Panel 44tm (Eurofins)) EUB0000162b PTGS2; conditions: at 10 µM
T3 sequence (whole entry): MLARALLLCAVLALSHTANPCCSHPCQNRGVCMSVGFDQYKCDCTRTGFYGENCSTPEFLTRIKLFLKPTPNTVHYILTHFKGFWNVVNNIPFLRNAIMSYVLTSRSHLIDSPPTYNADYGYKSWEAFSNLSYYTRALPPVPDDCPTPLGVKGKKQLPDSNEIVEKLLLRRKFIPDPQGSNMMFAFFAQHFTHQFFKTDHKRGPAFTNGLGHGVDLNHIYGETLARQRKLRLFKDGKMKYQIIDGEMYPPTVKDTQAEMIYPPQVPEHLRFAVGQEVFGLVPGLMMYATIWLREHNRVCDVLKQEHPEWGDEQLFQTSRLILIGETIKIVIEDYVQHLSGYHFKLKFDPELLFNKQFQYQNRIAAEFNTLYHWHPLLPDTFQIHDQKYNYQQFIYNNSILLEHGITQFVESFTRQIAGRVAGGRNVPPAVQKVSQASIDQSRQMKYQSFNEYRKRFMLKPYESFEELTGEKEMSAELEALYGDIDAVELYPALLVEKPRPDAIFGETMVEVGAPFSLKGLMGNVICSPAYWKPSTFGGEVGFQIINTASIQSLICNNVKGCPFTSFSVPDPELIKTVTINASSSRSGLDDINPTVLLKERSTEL

[8] = biological target: Mitogen-activated protein kinase kinase kinase 1 (Homo sapiens, UniProt Q13233); assay: Selectivity interaction (KinomeScan (DiscoverX)) EUB0001049a MAP3K1; conditions: at 1 µM
[9] = biological target: Serine/threonine-protein kinase WNK4 (Homo sapiens) (UniProt Q96J92); assay: Selectivity interaction (KinomeScan (DiscoverX)) EUB0000695a WNK4; conditions: at 100 nM
Sequence of Serine/threonine-protein kinase WNK4 (Homo sapiens) (Q96J92 whole entry): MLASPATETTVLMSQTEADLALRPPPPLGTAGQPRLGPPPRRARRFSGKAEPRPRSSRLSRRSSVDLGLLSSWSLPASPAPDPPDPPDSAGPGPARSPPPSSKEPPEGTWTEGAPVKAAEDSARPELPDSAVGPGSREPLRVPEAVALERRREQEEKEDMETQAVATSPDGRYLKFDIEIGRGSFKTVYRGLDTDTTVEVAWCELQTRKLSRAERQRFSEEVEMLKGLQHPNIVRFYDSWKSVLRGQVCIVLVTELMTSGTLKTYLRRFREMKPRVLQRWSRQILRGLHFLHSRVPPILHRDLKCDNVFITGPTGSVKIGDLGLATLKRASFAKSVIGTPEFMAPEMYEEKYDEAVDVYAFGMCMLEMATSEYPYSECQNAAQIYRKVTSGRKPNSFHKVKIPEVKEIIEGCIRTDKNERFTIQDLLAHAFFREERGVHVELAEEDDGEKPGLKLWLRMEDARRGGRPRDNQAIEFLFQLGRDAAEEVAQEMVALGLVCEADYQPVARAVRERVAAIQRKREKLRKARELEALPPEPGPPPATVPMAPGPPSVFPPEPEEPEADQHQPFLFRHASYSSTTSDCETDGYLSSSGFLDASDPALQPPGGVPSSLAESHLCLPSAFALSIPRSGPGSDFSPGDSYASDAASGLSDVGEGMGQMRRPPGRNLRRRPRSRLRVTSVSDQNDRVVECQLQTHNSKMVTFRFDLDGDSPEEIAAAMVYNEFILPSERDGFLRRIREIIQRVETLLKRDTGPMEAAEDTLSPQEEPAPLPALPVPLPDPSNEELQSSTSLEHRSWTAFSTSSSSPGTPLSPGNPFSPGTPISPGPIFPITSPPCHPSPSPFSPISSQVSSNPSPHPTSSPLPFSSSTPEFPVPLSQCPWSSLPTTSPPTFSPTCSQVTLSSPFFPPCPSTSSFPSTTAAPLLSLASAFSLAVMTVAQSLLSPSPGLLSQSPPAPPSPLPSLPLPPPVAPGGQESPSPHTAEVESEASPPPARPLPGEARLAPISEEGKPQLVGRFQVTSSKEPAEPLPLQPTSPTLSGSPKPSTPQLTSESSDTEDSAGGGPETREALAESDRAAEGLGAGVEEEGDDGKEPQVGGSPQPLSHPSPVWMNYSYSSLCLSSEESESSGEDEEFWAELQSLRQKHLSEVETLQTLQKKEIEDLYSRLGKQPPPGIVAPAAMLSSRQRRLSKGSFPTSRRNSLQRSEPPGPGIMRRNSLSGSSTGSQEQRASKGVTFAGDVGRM

Sequence of Cyclin-dependent kinase 9 (P50750 whole entry): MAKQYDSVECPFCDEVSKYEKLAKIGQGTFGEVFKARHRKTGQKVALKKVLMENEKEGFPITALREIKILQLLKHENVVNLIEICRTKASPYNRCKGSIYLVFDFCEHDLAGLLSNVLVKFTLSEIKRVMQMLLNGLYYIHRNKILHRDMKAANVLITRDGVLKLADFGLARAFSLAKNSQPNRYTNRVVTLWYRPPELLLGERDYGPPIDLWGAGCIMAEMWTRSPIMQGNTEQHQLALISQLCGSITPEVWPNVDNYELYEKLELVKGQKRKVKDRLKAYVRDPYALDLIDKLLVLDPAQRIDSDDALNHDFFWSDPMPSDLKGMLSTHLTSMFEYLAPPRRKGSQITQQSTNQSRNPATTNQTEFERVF

CCN(CC)CCCCNc1ncc2cc(-c3cc(OC)cc(OC)c3)c(NC(=O)NC(C)(C)C)nc2n1
% of control [1]: 100%

Nc1cnc(N2CCc3cc(S(=O)(=O)Nc4c(F)cc(Cl)cc4F)cc(N4CCCC4=O)c32)nc1 [TP-020n]
% of control [2]: 89%

CC(=O)Nc1cccc(-n2c(=O)n(C3CC3)c(=O)c3c(Nc4ccc(I)cc4F)n(C)c(=O)c(C)c32)c1
% of control [3]: 95%

N#Cc1cccc(-c2c[nH]c3ncnc(N4CCOCC4)c23)c1
% of control [4]: 98%
% of control [5]: 85%

CCc1cccc(CC)c1NC(=O)c1nn(C)c2c1CCc1cnc(Nc3ccc(C(=O)NC4CCN(C)CC4)cc3OC(F)(F)F)nc1-2
IC50 [6]: > 10 µM

CN(C)C(=O)Cn1cc(-c2ccc(-c3cncc4ccccc34)cc2)cn1
% of control [7]: 81%

COc1cc(Nc2nc(C)cc(-c3cnn4nc(OC)ccc34)n2)cc(C(F)(F)F)c1
% of control [8]: 86%

Cc1cc(F)c(C(=O)Nc2cccc(-c3nncn3C(C)C)n2)cc1-n1cnc(C2CC2)c1
% of control [9]: 100%
